row,SMILES,melting point
1,O=C(c1ccccc1)c1cc([N+](=O)[O-])ccc1-n1nc(CN2C(=O)c3ccccc3C2=O)cc1CN1C(=O)c2ccccc2C1=O,220 to 224 °C
2,Clc1ccc2c(c1)CCc1cccc3c1C2CN=C3 (stereo not given),106 °C
3,Cc1cccc(COc2ccc(CC(NC(=O)c3cn4ccc(-c5ccc(Cl)cc5)cc4n3)C(=O)O)cc2)c1 (stereo not given),245 to 246 °C
4,CN(C)C(=C[N+](=O)[O-])NCc1ccc(Cl)cc1,133 to 135 °C
5,O=C(O)c1ccnc2[nH]ccc12,> 300 °C
6,O=C(O)Cc1ccc(OCc2ccccc2C(=O)O)cc1,171 to 174 °C
7,CCOc1ccnc2[nH]ccc12,176 to 178 °C
8,O=C(O)Cc1c(Oc2ccccc2)cccc1Oc1ccccc1,32 to 38 °C
9,Cc1nnc(-c2ccc3occ(-c4ccc(S(=O)(=O)Cc5ccccc5)cc4)c3c2)o1,229 to 230 °C
10,CCCn1cc2c(C3C(=O)Nc4ccc(C#N)cc43)nc(NCCc3cccnc3)nc2n1 (stereo not given),302 to 305 °C
11,FC(F)(F)c1cc(Cl)c(Oc2cc(-c3ccc(Cl)cc3)[nH]n2)c(Cl)c1,181 to 183 °C
12,CC(C)N1CC2CC(C1)CN(C(C)(O)c1ccc(F)cc1)C2 (stereo not given),53 to 54 °C
13,CCCCn1c(=O)c(NC(=O)Nc2c(C(C)C)ccc(NC(=O)c3cccnc3)c2C(C)C)c(-c2cccc(OC)c2)c2cccnc21,179 to 180 °C
14,COc1ccc(CCN(CC(C)C)S(=O)(=O)N[C@@H](Cc2ccc(NC(=O)c3c(Cl)cncc3Cl)cc2)C(=O)O)cc1OC,192 °C
15,CCOC(=O)c1sc(Cl)nc1-c1cccc(C)c1,41 to 42 °C
16,CCCCNS(=O)(=O)CC(O)(CCCC)C(O)C(N)CC1CCCCC1 (stereo not given),164 to 165 °C
17,N=C(N)Nc1nc(CCCCNc2c(NCCSCc3csc(NC(=N)N)n3)c(=O)c2=O)cs1,208 to 210 °C
18,O=c1ccsn1Cc1ccccc1,78 to 80 °C
19,COc1ccc(CNc2nnc(N3CCC(CO)CC3)c3ccc(Cl)cc23)cc1Cl,128 to 131 °C
20,CCCOc1ccccc1-c1nc2nc(S(C)(=O)=O)ncc2c(=O)[nH]1,217 to 219 °C
21,COc1cccc2sc(C3(O)CCN(C(=O)OC(C)(C)C)C(C)C3)cc12 (stereo not given),73 to 76 °C
22,O=[N+]([O-])CC(c1ccc(Cl)cc1)C1CCCCC1O (racemic),82 to 84 °C
23,CC(C(=O)O)c1ccc(-c2ccc(F)cc2)c(O)c1 (stereo not given),138 to 142 °C
24,FC(F)(F)c1[nH]c(-c2ccc(Cl)cc2)c(Br)c1C(F)(F)F,64.5 to 65 °C
25,COC(=O)C(Oc1cc(OCc2ccsc2)ccc1C#N)c1ccccc1C (racemic),102 to 104 °C

row,SMILES,melting point
1,CN(CCO[N+](=O)[O-])C(=O)COC(=O)c1cc(S(N)(=O)=O)c(Cl)cc1NCc1ccco1,70 to 72 °C
2,COC(=O)Cc1ccc(O)c(Cl)c1,35 to 36 °C
3,O=C(Nc1ccc2c(c1)CCC2=O)c1cc(Cl)ccc1Cl,218 to 221 °C
4,CCCCCC(CCCCCO)NCc1cc2cc3c(cc2c2cc(OC)ccc12)OCO3 (stereo not given),122 to 124 °C
5,CCOC(=O)C(Cl)=Cc1cc(NC(=O)C2=C(C(=O)N(C)C)CCCC2)ccc1Cl,161 to 164 °C
6,CC(c1ccc(F)c(Br)c1)N(O)C(N)=O (stereo not given),125 °C
7,CCCCCCC(Oc1c(Br)cc(-c2ccc(-c3c(Cc4ccccc4)oc4ccccc34)cc2)cc1Br)C(=O)O (stereo not given),72 to 74 °C
8,OC(COc1cccc2[nH]nnc12)CN1CCC(COc2ccccc2)CC1 (stereo not given),187 to 189 °C
9,O=C1Nc2ccc(F)cc2C1CCCCN1CCN(c2ccccn2)CC1 (stereo not given),132 to 134 °C
10,CC1CC=C(c2ccc(C(C)O)cc2)CC1 (stereo not given),65 to 67 °C
11,CCc1sc2nc(=NS(=O)(=O)c3ccc(C)cc3)sn2c1-c1ccc2c(c1)CCCC2,151 to 152 °C
12,Oc1ccc(N2CCN(Cc3nc4ccccc4s3)CC2)cc1,175 to 176 °C
13,CNC1([C@@H]2CCN(c3ccc4c(=O)c(C(=O)O)cn5c4c3OC[C@@H]5C)C2)CC1,227 to 229 °C
14,COc1ccc(C2SCC(C(=O)O)N2C(=O)OC(C)(C)C)cc1 (stereo not given),160 to 162 °C
15,CCCc1c(OCCCCCCc2cccc(OC)c2OC)ccc(C(=O)O)c1O,115 to 118 °C
16,COc1cc2c(cc1OC)CN(CCCOc1ccc(NC(=O)c3cccc4c(=O)c5ccccc5[nH]c34)cc1)CC2,220 °C
17,COc1ccc(OC)c(COc2cc(Cl)sn2)c1,52 to 55 °C
18,CC(=O)N(CC(=O)O)c1ccccc1C(=O)O,206 °C
19,COc1ccc(N2CCN(c3c(C)c(C)c4c(c3C)CC(C)(CN3CCCCC3)O4)CC2)cc1 (stereo not given),122 to 125 °C
20,COc1ccc2c(c1)NC(=O)C(Cl)CC2 (stereo not given),162 to 163 °C
21,O=C(NC1CCCc2ccccc21)c1ccc([N+](=O)[O-])cc1 (stereo not given),156 to 157 °C
22,Cn1cc(-c2cccc(Cl)c2)c(=O)c(-c2cccc(Cl)c2)c1,164 to 167 °C
23,COc1cc([N+](=O)[O-])cc(OC(F)F)c1OC,72 to 73 °C
24,CCCSC(Cn1ccnc1)(SCCC)c1ccc2ccccc2c1,188 to 190 °C
25,CN1CC2CN(C(=O)N3c4ccccc4C(=O)Nc4cccnc43)CC2C1 (stereo not given),157 to 159 °C

# — a melting point compilation (Tetko et al.; mined from patent text by program, amines drawn as free bases though some values may be those of a salt)
